Experimental data: the NIST ThermoML archive (doi:10.1021/je060271a)
± gives the expanded uncertainty stated by the source.

Conditions: 343.15 K, Liquid, Vibrating tube method

CCCCCCC(=O)OCC(COC(=O)CCCCCC)(COC(=O)CCCCCC)COC(=O)CCCCCC [pentaerythritol tetraheptanoate]
Conditions | mass density [kg/m3]
5115 kPa | 944.4 ± 1.2
5119.1 kPa | 944.5 ± 1.2
5124.1 kPa | 944.5 ± 1.2
5128.3 kPa | 944.5 ± 1.2
5132.4 kPa | 944.4 ± 1.2
5136.3 kPa | 944.4 ± 1.2
5141.1 kPa | 944.4 ± 1.2
5145.3 kPa | 944.4 ± 1.2
5149.6 kPa | 944.5 ± 1.2
5153.6 kPa | 944.5 ± 1.2
5158.6 kPa | 944.5 ± 1.2
5162.9 kPa | 944.5 ± 1.2
5167.1 kPa | 944.5 ± 1.2
5172.1 kPa | 944.5 ± 1.2
5176 kPa | 944.4 ± 1.2
5180 kPa | 944.5 ± 1.2
5184.4 kPa | 944.4 ± 1.2
5189.9 kPa | 944.6 ± 1.2
5193.9 kPa | 944.4 ± 1.2
5198 kPa | 944.4 ± 1.2
5202.4 kPa | 944.7 ± 1.2
5206.5 kPa | 944.5 ± 1.2
5211.7 kPa | 944.6 ± 1.2
5216 kPa | 944.6 ± 1.2
5220.2 kPa | 944.5 ± 1.2
5225 kPa | 944.6 ± 1.2
5229.2 kPa | 944.5 ± 1.2
5233.5 kPa | 944.5 ± 1.2
5237.6 kPa | 944.5 ± 1.2
5243.2 kPa | 944.5 ± 1.2
5247.3 kPa | 944.7 ± 1.2
5251.8 kPa | 944.5 ± 1.2
5256 kPa | 944.7 ± 1.2
5260.8 kPa | 944.6 ± 1.2
5265 kPa | 944.6 ± 1.2
5269.7 kPa | 944.6 ± 1.2
5273.8 kPa | 944.5 ± 1.2
5277.8 kPa | 944.7 ± 1.2
5281.4 kPa | 944.6 ± 1.2
5285 kPa | 944.6 ± 1.2
5291.6 kPa | 944.7 ± 1.2
5300.3 kPa | 944.5 ± 1.2
5308.9 kPa | 944.7 ± 1.2
5319.5 kPa | 944.7 ± 1.2
5328.6 kPa | 944.7 ± 1.2
5337.3 kPa | 944.6 ± 1.2
5348.2 kPa | 944.6 ± 1.2
5357.2 kPa | 944.7 ± 1.2
5366.4 kPa | 944.6 ± 1.2
5375.7 kPa | 944.6 ± 1.2
5386.4 kPa | 944.6 ± 1.2
5395.4 kPa | 944.7 ± 1.2
5406.3 kPa | 944.9 ± 1.2
5415.5 kPa | 944.8 ± 1.2
5425 kPa | 944.8 ± 1.2
5434.7 kPa | 944.7 ± 1.2
5444 kPa | 944.7 ± 1.2
5453.7 kPa | 944.7 ± 1.2
5464.8 kPa | 944.8 ± 1.2
5473.8 kPa | 944.7 ± 1.2
5485 kPa | 945 ± 1.2
5494.5 kPa | 944.7 ± 1.2
5504.2 kPa | 944.8 ± 1.2
5513.7 kPa | 944.8 ± 1.2
5525.5 kPa | 944.8 ± 1.2
5535 kPa | 944.7 ± 1.2
5544.7 kPa | 944.8 ± 1.2
5554.7 kPa | 944.8 ± 1.2
5568 kPa | 944.8 ± 1.2
5576.2 kPa | 944.7 ± 1.2
5587.6 kPa | 944.8 ± 1.2
5597.4 kPa | 944.8 ± 1.2
5607.3 kPa | 944.8 ± 1.2
5619.2 kPa | 944.8 ± 1.2
5629.1 kPa | 944.8 ± 1.2
5639.1 kPa | 944.9 ± 1.2
5650.9 kPa | 944.9 ± 1.2
5660.8 kPa | 944.8 ± 1.2
5671.1 kPa | 944.8 ± 1.2
5681.5 kPa | 944.7 ± 1.2
5694 kPa | 944.9 ± 1.2
5705.1 kPa | 945 ± 1.2
5715.3 kPa | 944.9 ± 1.2
5725.9 kPa | 945 ± 1.2
5737.8 kPa | 944.9 ± 1.2
5748.4 kPa | 944.8 ± 1.2
5758.7 kPa | 945 ± 1.2
5771 kPa | 944.9 ± 1.2
5781.7 kPa | 944.9 ± 1.2
5791.9 kPa | 944.9 ± 1.2
5802.8 kPa | 944.9 ± 1.2
5815.5 kPa | 945.1 ± 1.2
5826.5 kPa | 945 ± 1.2
5837.6 kPa | 945.1 ± 1.2
5848.7 kPa | 945 ± 1.2
5862 kPa | 945 ± 1.2
5872.5 kPa | 944.9 ± 1.2
5883.3 kPa | 945 ± 1.2
5894.5 kPa | 945.1 ± 1.2
5907.6 kPa | 945.1 ± 1.2
5918.9 kPa | 945 ± 1.2
5930.1 kPa | 945.1 ± 1.2
5941.2 kPa | 945 ± 1.2
5954.7 kPa | 945.1 ± 1.2
5965.7 kPa | 945.3 ± 1.2
5977 kPa | 945 ± 1.2
5990.6 kPa | 945.1 ± 1.2
6002 kPa | 945 ± 1.2
6013.3 kPa | 945.2 ± 1.2
6026.9 kPa | 945.1 ± 1.2
6038.5 kPa | 945.2 ± 1.2
6050.1 kPa | 945.1 ± 1.2
6063.9 kPa | 945.1 ± 1.2
6075.5 kPa | 945.2 ± 1.2
6087.4 kPa | 945.2 ± 1.2
6099.2 kPa | 945.2 ± 1.2
6113 kPa | 945.2 ± 1.2
6125.1 kPa | 945.2 ± 1.2
6137.2 kPa | 945.3 ± 1.2
6149.3 kPa | 945.1 ± 1.2
6163.7 kPa | 945.3 ± 1.2
6175.6 kPa | 945.3 ± 1.2
6187.7 kPa | 945.2 ± 1.2
6199.8 kPa | 945.2 ± 1.2
6214.5 kPa | 945.3 ± 1.2
6226.9 kPa | 945.3 ± 1.2
6239.4 kPa | 945.3 ± 1.2
6253.9 kPa | 945.3 ± 1.2
6266.1 kPa | 945.3 ± 1.2
6278.6 kPa | 945.3 ± 1.2
6293.3 kPa | 945.3 ± 1.2
6306.2 kPa | 945.3 ± 1.2
6319 kPa | 945.5 ± 1.2
6332 kPa | 945.3 ± 1.2
6347 kPa | 945.4 ± 1.2
6359.8 kPa | 945.5 ± 1.2
6372.6 kPa | 945.4 ± 1.2
6385.6 kPa | 945.4 ± 1.2
6400.6 kPa | 945.4 ± 1.2
6413.9 kPa | 945.4 ± 1.2
6426.9 kPa | 945.3 ± 1.2
6442.4 kPa | 945.3 ± 1.2
6456.1 kPa | 945.4 ± 1.2
6469 kPa | 945.5 ± 1.2
6482.7 kPa | 945.4 ± 1.2
6499.1 kPa | 945.6 ± 1.2
6512.8 kPa | 945.5 ± 1.2
6525.9 kPa | 945.5 ± 1.2
6541.8 kPa | 945.6 ± 1.2
6555.1 kPa | 945.6 ± 1.2
6568.9 kPa | 945.6 ± 1.2
6585.3 kPa | 945.5 ± 1.2
6598.8 kPa | 945.5 ± 1.2
6612.5 kPa | 945.5 ± 1.2
6629.2 kPa | 945.6 ± 1.2
6643.2 kPa | 945.5 ± 1.2
6657.6 kPa | 945.7 ± 1.2
6671.9 kPa | 945.5 ± 1.2
6687.1 kPa | 945.5 ± 1.2
6704 kPa | 945.6 ± 1.2
6718.4 kPa | 945.6 ± 1.2
6732.5 kPa | 945.6 ± 1.2
6747.4 kPa | 945.7 ± 1.2
6764.3 kPa | 945.8 ± 1.2
6779.2 kPa | 945.8 ± 1.2
6793.5 kPa | 945.7 ± 1.2
6811.1 kPa | 945.6 ± 1.2
6825.8 kPa | 945.6 ± 1.2
6840.7 kPa | 945.8 ± 1.2
6855.9 kPa | 945.7 ± 1.2
6874.2 kPa | 945.8 ± 1.2
6887.1 kPa | 945.8 ± 1.2
6904.9 kPa | 945.9 ± 1.2
6920.2 kPa | 945.8 ± 1.2
6935.6 kPa | 945.8 ± 1.2
6953.6 kPa | 945.8 ± 1.2
6968.8 kPa | 945.9 ± 1.2
6984.8 kPa | 945.8 ± 1.2
7000.2 kPa | 945.7 ± 1.2
7019.2 kPa | 946 ± 1.2
7034.9 kPa | 945.7 ± 1.2
7050.8 kPa | 945.8 ± 1.2
7069.3 kPa | 945.8 ± 1.2
7085.7 kPa | 945.9 ± 1.2
7101.8 kPa | 945.9 ± 1.2
7117.8 kPa | 946 ± 1.2
7137.2 kPa | 945.9 ± 1.2
7153.2 kPa | 946 ± 1.2
7169.6 kPa | 945.9 ± 1.2
7186 kPa | 945.8 ± 1.2
7205.5 kPa | 945.9 ± 1.2
7221.8 kPa | 946 ± 1.2
7241.8 kPa | 946 ± 1.2
7258.6 kPa | 946 ± 1.2
7275.1 kPa | 945.9 ± 1.2
7292.1 kPa | 946.1 ± 1.2
7312.3 kPa | 946.1 ± 1.2
7329.7 kPa | 946.2 ± 1.2
7347 kPa | 946.1 ± 1.2
7364.6 kPa | 946.1 ± 1.2
7385.1 kPa | 946.1 ± 1.2
7402.4 kPa | 946.2 ± 1.2
7420 kPa | 946.2 ± 1.2
7437.8 kPa | 946.2 ± 1.2
7458.7 kPa | 946.2 ± 1.2
7476.1 kPa | 946.2 ± 1.2
7494.2 kPa | 946.1 ± 1.2
7515.3 kPa | 946.3 ± 1.2
7533.4 kPa | 946.1 ± 1.2
7551.9 kPa | 946.3 ± 1.2
7570.4 kPa | 946.3 ± 1.2
7592.1 kPa | 946.3 ± 1.2
7610.3 kPa | 946.4 ± 1.2
7628.9 kPa | 946.4 ± 1.2
7650.8 kPa | 946.3 ± 1.2
7669.1 kPa | 946.3 ± 1.2
7688.1 kPa | 946.3 ± 1.2
7710.2 kPa | 946.3 ± 1.2
7729.2 kPa | 946.3 ± 1.2
7748.3 kPa | 946.4 ± 1.2
7767.5 kPa | 946.4 ± 1.2
7790.8 kPa | 946.4 ± 1.2
7810.5 kPa | 946.5 ± 1.2
7830.3 kPa | 946.5 ± 1.2
